Reference: PubChem BioAssay (NCI)
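Results reflect a 48-hour exposure of cells in 96-well plates to compound at five concentrations. Definition used: TGI = concentration required for complete inhibition of growth.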

Tests used:
Test in all cases: NCI tumour cell line growth inhibition, 48 h
MDA-N = system: MDA-N
P388/ADR leukemia = system: P388/ADR leukemia
DMS 114 small cell lung = system: DMS 114 small cell lung
DMS 273 small cell lung = system: DMS 273 small cell lung
SN12K1 renal = system: SN12K1 renal
XF 498 CNS = system: XF 498 CNS
SNB-78 CNS = system: SNB-78 CNS
BT-549 breast = system: BT-549 breast
P388 leukemia = system: P388 leukemia
HOP-18 NSCLC = system: HOP-18 NSCLC
LXFL 529 NSCLC = system: LXFL 529 NSCLC
RXF-631 renal = system: RXF-631 renal

With `C[C@]12CC[C@H](OC3OC(CO)C(O)C(O)C3O)C[C@H]1CC[C@@H]1[C@@H]2CC[C@]2(C)[C@@H](C3=CCOC3=O)CC[C@]12O` (some centres not stated) the TGI (MDA-N) was greater than 100 µM, the TGI (P388/ADR leukemia) was 50 µM and the TGI (DMS 114 small cell lung) was 50 µM. The TGI (DMS 273 small cell lung) was 25.1 µM, the TGI (SN12K1 renal) was 41.5 µM and the TGI (XF 498 CNS) was 11.2 µM. For the same compound, the TGI (SNB-78 CNS) was 50 µM, the TGI (BT-549 breast) was greater than 100 µM and the TGI (P388 leukemia) was 20.9 µM.
`C[C@]12CCC(=O)C(O)=C1CC[C@@H]1C2CC[C@]2(C)NC(=O)CCC12` (some centres not stated) showed a TGI (HOP-18 NSCLC) greater than 100 µM, a TGI (DMS 114 small cell lung) greater than 100 µM and a TGI (DMS 273 small cell lung) greater than 100 µM. It also gave a TGI (LXFL 529 NSCLC) greater than 100 µM, a TGI (XF 498 CNS) greater than 100 µM and a TGI (SNB-78 CNS) greater than 100 µM. For the same compound, the TGI (RXF-631 renal) was greater than 100 µM.
`O=C1C=CC(=O)C12CCc1ccccc12` showed a TGI (HOP-18 NSCLC) of 97.4 µM, a TGI (DMS 114 small cell lung) greater than 100 µM and a TGI (DMS 273 small cell lung) greater than 100 µM. It also gave a TGI (LXFL 529 NSCLC) greater than 100 µM, a TGI (XF 498 CNS) greater than 100 µM and a TGI (SNB-78 CNS) greater than 100 µM. For the same compound, the TGI (RXF-631 renal) was greater than 100 µM.
For `CCOc1ccc(N=Cc2ccc3cc(C)ccc3n2)cc1`, the TGI (HOP-18 NSCLC) was greater than 100 µM, the TGI (DMS 114 small cell lung) was greater than 100 µM and the TGI (DMS 273 small cell lung) was greater than 100 µM. For the same compound, the TGI (LXFL 529 NSCLC) was greater than 100 µM, the TGI (XF 498 CNS) was greater than 100 µM and the TGI (SNB-78 CNS) was greater than 100 µM. For the same compound, the TGI (RXF-631 renal) was greater than 100 µM.
With `CC(=O)CC(N)=O` the TGI (HOP-18 NSCLC) was greater than 100 µM, the TGI (DMS 114 small cell lung) was greater than 100 µM and the TGI (DMS 273 small cell lung) was greater than 100 µM. The TGI (LXFL 529 NSCLC) was greater than 100 µM, the TGI (XF 498 CNS) was greater than 100 µM and the TGI (SNB-78 CNS) was greater than 100 µM. The TGI (RXF-631 renal) was greater than 100 µM.
